The values that follow come from US8193210B2, “Camptothecin derivatives with antitumor activity” (Indena S.p.A., priority 2006, dated 2012).

≈ marks a conversion by molar mass, not a printed value. Like-named read-outs stand apart in the source and are kept apart here. Bounds are passed on as bounds.

In assay [1] the test system is NCI-H460 cell line (NSCL cancer). As to the kind of experiment: Cell growth inhibition assay (cytotoxicity, cell count). The assay is classed as cell-based, human. To be noted: for IC50: Homo sapiens; for NCl-H460 IC50 (μg/mL) Cell count: H460 cells. On the procedure: The compounds of the invention were tested in a cytotoxicity assay on a wide spectrum of tumour cells. By way of example, the cytotoxicity data on the NCI-H460 cell line (NSCL cancer) concerning two compounds of formula (I) are reported, using camptothecin and the drugs Topotecan and SN-38 as references:
H460 Cells from human large cell lung tumor were cultured in RPMI-1640 medium containing 10% foetal calf serum. Cell sensitivity was determined by cell growth inhibition assay after 1 or 72 hr drug exposure. The cells in logarithmic growth were collected and seeded in duplicate in 6-wells plates. […] IC50 is defined as the concentration inhibiting by 50% cell growth compared with untreated controls growth.

The target in assay [2] is T1, human recombinant enzyme (full length top1) (Homo sapiens, UniProt P11387).
T1 construct: the human recombinant enzyme (full length top1)
T1 sequence (P11387 1-765): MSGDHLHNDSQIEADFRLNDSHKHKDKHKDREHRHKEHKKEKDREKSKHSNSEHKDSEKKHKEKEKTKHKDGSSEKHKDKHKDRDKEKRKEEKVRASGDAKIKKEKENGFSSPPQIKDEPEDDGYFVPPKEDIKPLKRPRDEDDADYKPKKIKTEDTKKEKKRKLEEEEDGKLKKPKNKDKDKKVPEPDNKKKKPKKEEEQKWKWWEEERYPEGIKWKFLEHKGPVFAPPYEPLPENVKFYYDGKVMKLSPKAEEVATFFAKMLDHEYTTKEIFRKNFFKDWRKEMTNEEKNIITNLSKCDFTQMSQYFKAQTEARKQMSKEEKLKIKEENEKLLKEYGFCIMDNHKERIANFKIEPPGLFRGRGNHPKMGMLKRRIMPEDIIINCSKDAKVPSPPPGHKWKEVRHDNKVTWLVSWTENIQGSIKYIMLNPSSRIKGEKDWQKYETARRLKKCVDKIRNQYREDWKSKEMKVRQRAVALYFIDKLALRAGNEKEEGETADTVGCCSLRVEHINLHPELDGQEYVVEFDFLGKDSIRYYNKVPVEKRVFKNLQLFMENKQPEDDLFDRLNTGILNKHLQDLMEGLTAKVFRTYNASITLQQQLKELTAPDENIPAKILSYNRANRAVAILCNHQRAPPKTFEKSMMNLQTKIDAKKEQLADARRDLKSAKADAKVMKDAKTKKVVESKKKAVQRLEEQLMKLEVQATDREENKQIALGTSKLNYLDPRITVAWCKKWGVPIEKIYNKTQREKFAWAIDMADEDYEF
As to the kind of experiment: Topoisomerase-I-dependent DNA rupture assay, persistence of DNA damage. The assay is classed as biochemical. To be noted: 30 min incubation with 10 μM drug.

Where [3] appears, read: NCI-H460, H460 cells, 1 or 72 hr drug exposure, counted with Coulter counter 72 hours after exposure, read-out: NCl-H460 IC50 (μg/mL) Cell count.
[4] abbreviates: 1 or 72 hr drug exposure, counted with Coulter counter 72 hours after exposure.
Where [5] appears, read: NCI-H460, read-out: NCl-H460 IC50 (μg/mL) Cell count, H460 cells, 1 or 72 hr drug exposure, counted with Coulter counter 72 hours after exposure.
Setting [6] is: Time 0 min after adding 0.6 M NaCl.

`CC[C@@]1(O)C(=O)OCc2c1cc1n(c2=O)C(N)c2cc3ccccc3nc2-1` (stereo partly shown) [5-NH2-camptothecin]: the IC50 in assay [1] (setting [3]) turned out to be 11 ± 3.1 µg/mL (≈ 30.3 µM).

As to `CC[C@@]1(O)C(=O)OCc2c1cc1n(c2=O)C(N(NC(=O)OC(C)(C)C)C(=O)OC(C)(C)C)c2cc3ccccc3nc2-1` (single isomer, unassigned) [5-di-tert-butoxycarbonyl-hydrazinocamptothecin Isomer 2, 5-di-t-butoxycarbonylhydrazino-camptothecin 2nd diastereomer], in assay [1] (setting [4]), the “NCl-H460 IC50 (μg/mL) Cell count” value was > 100 µg/mL.

Turning to `CC[C@@]1(O)C(=O)OCc2c1cc1n(c2=O)C(N=[N+]=[N-])c2cc3ccccc3nc2-1` (single isomer, unassigned) [5-N3-camptothecin Isomer 1, 5-N3-camptothecin 1st diastereomer], the IC50 in assay [1] (setting [5]) turned out to be 4.18 µg/mL (≈ 10.7 µM).

Consider `CC[C@@]1(O)C(=O)OCc2c1cc1n(c2=O)C(N=[N+]=[N-])c2cc3ccccc3nc2-1` (single isomer, unassigned) [5-N3-camptothecin Isomer 2, 5-N3-camptothecin 2nd diastereomer], for which the “NCl-H460 IC50 (μg/mL) Cell count” value in assay [1] (setting [4]) amounted to 2.59 ± 0.7 µg/mL.

In the case of `CC[C@@]1(O)C(=O)OCc2c1cc1n(c2=O)C(F)c2cc3ccccc3nc2-1` (single isomer, unassigned) [5-F-camptothecin Isomer 2, 5-F-camptothecin 2nd diastereomer], the “NCl-H460 IC50 (μg/mL) Cell count” value in assay [1] (setting [4]) was found to be 20 ± 5.1 µg/mL. The “Persistence of DNA Damage (%)” value is given as 100% in assay [2] (setting [6]); 10% in assay [2] (Time 1 min after adding 0.6 M NaCl, listed as 5-F CPT isomers 2); 10% in assay [2] (Time 5 min after adding 0.6 M NaCl, listed as 5-F CPT isomers 2); 13% in assay [2] (Time 10 min after adding 0.6 M NaCl, listed as 5-F CPT isomers 2).

Consider `CC[C@@]1(O)C(=O)OCc2c1cc1n(c2=O)C(N(NC(=O)OC(C)(C)C)C(=O)OC(C)(C)C)c2cc3ccccc3nc2-1` (single isomer, unassigned) [5-di-tert-butoxycarbonyl-hydrazinocamptothecin Isomer 1, 5-di-t-butoxycarbonylhydrazino-camptothecin 1st diastereomer], for which, in assay [1] (setting [3]), the IC50 was 50 µg/mL (≈ 86.4 µM).

With `CC[C@@]1(O)C(=O)OCc2c1cc1n(c2=O)C(N=[N+]=[N-])c2cc3ccccc3nc2-1` (single isomer, unassigned) [5-N3 CPT, 5-N3-camptothecin], the “Persistence of DNA Damage (%)” value in assay [2] (setting [6]) amounted to 100%; in assay [2] (Time 1 min after adding 0.6 M NaCl) it was 50%; in assay [2] (Time 5 min after adding 0.6 M NaCl), 30%; in assay [2] (Time 10 min after adding 0.6 M NaCl) it was 15%.

Turning to `CC[C@@]1(O)C(=O)OCc2c1cc1n(c2=O)C(F)c2cc3ccccc3nc2-1` (single isomer, unassigned) [5-F-camptothecin Isomer 1, 5-F-camptothecin 1st diastereomer], the IC50 in assay [1] (setting [5]) is 20.6 µg/mL (≈ 56.2 µM). Further, the “Persistence of DNA Damage (%)” value came out at 100% in assay [2] (setting [6]); 18% in assay [2] (Time 1 min after adding 0.6 M NaCl, listed as 5-F CPT isomers 1); 18% in assay [2] (Time 5 min after adding 0.6 M NaCl, listed as 5-F CPT isomers 1); 10% in assay [2] (Time 10 min after adding 0.6 M NaCl, listed as 5-F CPT isomers 1).
